Results from PubChem BioAssay AID328 (DTP/NCI, 2004).
“And” between values parts separate entries of the source, which are not always exact repeats. Identical values can stand only once. Toxic doses and inconclusive results are not listed.

Test system: BDF1 mice, P388 leukemia ip, median survival T/C
Assay: NCI In Vivo Anticancer Drug Screen. Data for tumor model P388 Leukemia (intraperitoneal) in B6D2F1 (BDF1) mice
Settings: endpoint: median survival time, higher = longer survival
Method in brief: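 Steps: implant the tumour, treat one group with compound and another with vehicle, record survival, then divide treated by control.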

[1] = dose: 25.0 mg/kg/injection, schedule: Q01DX009 (ip), vehicle: saline
[2] = dose: 50.0 mg/kg/injection, schedule: Q01DX009 (ip), vehicle: saline
[3] = dose: 100.0 mg/kg/injection, schedule: Q04DX003 (ip), vehicle: saline with Tween-80
[4] = dose: 200.0 mg/kg/injection, schedule: Q04DX003 (ip), vehicle: saline with Tween-80
[5] = dose: 100.0 mg/kg/injection, schedule: Q01DX009 (ip), vehicle: saline with Tween-80
[6] = dose: 200.0 mg/kg/injection, schedule: Q01DX009 (ip), vehicle: saline with Tween-80
[7] = dose: 100.0 mg/kg/injection, schedule: Q01DX009 (ip), vehicle: other
[8] = dose: 200.0 mg/kg/injection, schedule: Q01DX009 (ip), vehicle: other
[9] = dose: 400.0 mg/kg/injection, schedule: Q01DX009 (ip), vehicle: other
[10] = dose: 400.0 mg/kg/injection, schedule: Q04DX003 (ip), vehicle: saline with Tween-80

O=C1CN(CCN2CC(=O)NC(=O)C2)CC(=O)N1
T/C (dose: 3.12 mg/kg/injection, schedule: Q03HX024 (ip), vehicle: steriod suspending solution): 105 % of control
T/C (dose: 6.25 mg/kg/injection, schedule: Q03HX024 (ip), vehicle: steriod suspending solution): 117 % of control
T/C (dose: 12.5 mg/kg/injection, schedule: Q01DX009 (ip), vehicle: steriod suspending solution): 94 % of control
T/C (dose: 12.5 mg/kg/injection, schedule: Q03HX024 (ip), vehicle: steriod suspending solution): 152 % of control
T/C (dose: 15.0 mg/kg/injection, schedule: Q01DX010 (ip), vehicle: saline): 314 % of control and 222 % of control
T/C (dose: 25.0 mg/kg/injection, schedule: Q01DX009 (ip), vehicle: steriod suspending solution): 105 % of control
T/C (dose: 25.0 mg/kg/injection, schedule: Q03HX024 (ip), vehicle: steriod suspending solution): 152 % of control
T/C (dose: 30.0 mg/kg/injection, schedule: Q01DX010 (ip), vehicle: saline): 272 % of control and 176 % of control
T/C (dose: 50.0 mg/kg/injection, schedule: Q03HX024 (ip), vehicle: steriod suspending solution): 123 % of control
T/C (dose: 60.0 mg/kg/injection, schedule: Q01DX010 (ip), vehicle: saline): 118 % of control and 219 % of control
T/C (dose: 100.0 mg/kg/injection, schedule: Q01DX001 (ip), vehicle: steriod suspending solution): 100 % of control
T/C (dose: 100.0 mg/kg/injection, schedule: Q01DX009 (ip), vehicle: steriod suspending solution): 164 % of control
T/C (dose: 100.0 mg/kg/injection, schedule: Q04DX003 (ip), vehicle: steriod suspending solution): 105 % of control
T/C (dose: 200.0 mg/kg/injection, schedule: Q01DX001 (ip), vehicle: steriod suspending solution): 105 % of control
T/C (dose: 200.0 mg/kg/injection, schedule: Q04DX003 (ip), vehicle: steriod suspending solution): 111 % of control
T/C (dose: 400.0 mg/kg/injection, schedule: Q01DX001 (ip), vehicle: steriod suspending solution): 111 % of control
T/C (dose: 800.0 mg/kg/injection, schedule: Q01DX001 (ip), vehicle: steriod suspending solution): 117 % of control
T/C (dose: 800.0 mg/kg/injection, schedule: Q04DX003 (ip), vehicle: steriod suspending solution): 182 % of control

O=C(OC[P+](c1ccccc1)(c1ccccc1)c1ccccc1)c1ccccc1
T/C (dose: 3.13 mg/kg/injection, schedule: Q01DX009 (ip), vehicle: saline): 112 % of control
T/C [1]: 122 % of control
T/C [2]: 91 % of control

CC1(C)O[C@@H]2C[C@H]3[C@@H]4CCC5=CC(=O)C=C[C@]5(C)[C@@]4(F)[C@@H](O)C[C@]3(C)[C@]2(C(=O)CO)O1
T/C (dose: 50.0 mg/kg/injection, schedule: Q01DX009 (ip), vehicle: saline with Tween-80): 100 % of control
T/C [3]: 108 % of control
T/C [4]: 100 % of control

CCCOn1nnc2cc(Cl)ccc21
T/C [5]: 100 % of control
T/C [6]: 92 % of control

COc1ccc(-c2cc(=O)c3cc(OC)c(OC)cc3o2)cc1OC
T/C (dose: 1.88 mg/kg/injection, schedule: Q01DX009 (ip), vehicle: saline): 94 % of control
T/C (dose: 3.75 mg/kg/injection, schedule: Q01DX009 (ip), vehicle: saline): 91 % of control

Nc1ncnc2c1ncn2C1OC(COP(=O)(O)O)C(O)C1O (stereo not drawn)
T/C (dose: 18.8 mg/kg/injection, schedule: Q03HX016 (ip), vehicle: saline): 121 % of control
T/C (dose: 100.0 mg/kg/injection, schedule: Q03HX016 (ip), vehicle: saline): 157 % of control
T/C (dose: 100.0 mg/kg/injection, schedule: Q03HX024 (ip), vehicle: saline): 151 % of control
T/C (dose: 150.0 mg/kg/injection, schedule: Q03HX016 (ip), vehicle: saline): 169 % of control
T/C (dose: 150.0 mg/kg/injection, schedule: Q03HX024 (ip), vehicle: saline): 178 % of control

Cc1cccc2c(Nc3ccc(NS(C)(=O)=O)cc3)c3ccccc3nc12
T/C (dose: 0.88 mg/kg/injection, schedule: Q01DX009 (ip), vehicle: saline with Tween-80): 123 % of control
T/C (dose: 2.93 mg/kg/injection, schedule: Q04DX003 (ip), vehicle: saline with Tween-80): 118 % of control
T/C (dose: 3.0 mg/kg/injection, schedule: Q01DX009 (ip), vehicle: saline with Tween-80): 153 % of control
T/C (dose: 5.0 mg/kg/injection, schedule: Q01DX009 (ip), vehicle: saline with Tween-80): 166 % of control
T/C (dose: 10.0 mg/kg/injection, schedule: Q01DX009 (ip), vehicle: saline with Tween-80): 203 % of control
T/C (dose: 20.0 mg/kg/injection, schedule: Q01DX009 (ip), vehicle: saline with Tween-80): 197 % of control
T/C (dose: 20.0 mg/kg/injection, schedule: Q04DX003 (ip), vehicle: saline with Tween-80): 150 % of control
T/C (dose: 22.0 mg/kg/injection, schedule: Q04DX003 (ip), vehicle: saline with Tween-80): 168 % of control
T/C (dose: 30.0 mg/kg/injection, schedule: Q04DX003 (ip), vehicle: saline with Tween-80): 154 % of control
T/C (dose: 33.0 mg/kg/injection, schedule: Q04DX003 (ip), vehicle: saline with Tween-80): 181 % of control
T/C (dose: 50.0 mg/kg/injection, schedule: Q04DX003 (ip), vehicle: saline with Tween-80): 245 % of control
T/C (dose: 75.0 mg/kg/injection, schedule: Q04DX003 (ip), vehicle: saline with Tween-80): 259 % of control
T/C [3]: 204 % of control
T/C [4]: 272 % of control

Clc1nc2nc(C3CC3)[nH]c2nc1Cl
T/C [5]: 104 % of control
T/C [6]: 100 % of control
T/C (dose: 400.0 mg/kg/injection, schedule: Q01DX009 (ip), vehicle: saline with Tween-80): 104 % of control

Cc1c(OCc2ccccc2)cccc1[N+](=O)[O-]
T/C [7]: 109 % of control
T/C (dose: 100.0 mg/kg/injection, schedule: Q04DX003 (ip), vehicle: other): 113 % of control
T/C [8]: 119 % of control
T/C (dose: 200.0 mg/kg/injection, schedule: Q04DX003 (ip), vehicle: other): 100 % of control
T/C [9]: 109 % of control
T/C (dose: 400.0 mg/kg/injection, schedule: Q04DX003 (ip), vehicle: other): 109 % of control

CC[N+](C)(C)c1ncnc2nc[nH]c12
T/C [1]: 91 % of control
T/C [2]: 95 % of control
T/C (dose: 100.0 mg/kg/injection, schedule: Q01DX009 (ip), vehicle: saline): 87 % of control and 91 % of control
T/C (dose: 100.0 mg/kg/injection, schedule: Q04DX003 (ip), vehicle: saline): 104 % of control
T/C (dose: 200.0 mg/kg/injection, schedule: Q01DX009 (ip), vehicle: saline): 95 % of control
T/C (dose: 200.0 mg/kg/injection, schedule: Q04DX003 (ip), vehicle: saline): 104 % of control

CC1=C(O)C(O)C2OC2C1=O (stereo not drawn)
T/C (dose: 12.5 mg/kg/injection, schedule: Q01DX009 (ip), vehicle: saline): 96 % of control
T/C [1]: 87 % of control
T/C [2]: 107 % of control

Nc1ccc(-c2ccc(N)cc2Br)c(Br)c1
T/C [3]: 100 % of control
T/C [4]: 95 % of control
T/C [10]: 104 % of control

COC(=O)CC(C)Cc1ccc(OC)c(OC)c1 (stereo not drawn)
T/C [5]: 104 % of control
T/C [3]: 95 % of control
T/C [6]: 112 % of control
T/C [4]: 109 % of control
T/C [10]: 109 % of control

O=S(=O)(Nc1ccc(O)cc1)c1ccccc1
T/C [3]: 100 % of control
T/C [4]: 95 % of control
T/C [10]: 104 % of control

Cc1cc(C)cc(NCCC#N)c1
T/C [7]: 115 % of control
T/C [8]: 115 % of control
T/C [9]: 105 % of control

CN(C)C=C1C(=O)N(C)C(=O)N(C)C1=O
T/C (dose: 100.0 mg/kg/injection, schedule: Q04DX002 (ip), vehicle: saline): 101 % of control
T/C (dose: 200.0 mg/kg/injection, schedule: Q04DX002 (ip), vehicle: saline): 108 % of control
T/C (dose: 400.0 mg/kg/injection, schedule: Q04DX002 (ip), vehicle: saline): 112 % of control

CCCCCCCCCCCCCCCCOc1ccccc1CNc1cc(C(F)(F)F)ccc1Cl
T/C [7]: 90 % of control
T/C [8]: 100 % of control
T/C [9]: 105 % of control

CCOC(=O)c1ccc(NC(=O)Nc2nc(C)cs2)cc1
T/C (dose: 25.0 mg/kg/injection, schedule: Q01DX009 (ip), vehicle: other): 103 % of control
T/C [7]: 99 % of control

C(=Nc1ccc2c(c1)Cc1ccccc1-2)c1ccccc1
T/C (dose: 50.0 mg/kg/injection, schedule: Q01DX009 (ip), vehicle: Klucel (hydroxypropylcellulose) (HPC)): 90 % of control
T/C (dose: 100.0 mg/kg/injection, schedule: Q01DX009 (ip), vehicle: Klucel (hydroxypropylcellulose) (HPC)): 109 % of control
T/C (dose: 200.0 mg/kg/injection, schedule: Q01DX009 (ip), vehicle: Klucel (hydroxypropylcellulose) (HPC)): 100 % of control

Cc1c2oc3c(C)ccc(C(=O)NCCc4ccccn4)c3nc-2c(C(=O)NCCc2ccccn2)c(N)c1=O
T/C (dose: 100.0 mg/kg/injection, schedule: Q04DX002 (ip), vehicle: saline with Tween-80): 101 % of control
T/C (dose: 200.0 mg/kg/injection, schedule: Q04DX002 (ip), vehicle: saline with Tween-80): 92 % of control
T/C (dose: 400.0 mg/kg/injection, schedule: Q04DX002 (ip), vehicle: saline with Tween-80): 97 % of control
